Reference: patent US9248114B2, “Use of 2,5-dihydroxybenzene compounds and derivatives for the treatment of hematological dyscrasias and cancer of an organ” (Action Medicines, S.L., priority 2006, dated 2016)

Key:
bFGF-induced fibrosis = bFGF-induced fibrosis around subcutaneously implanted gelatin sponges in rats; type: in vivo, Sprague-Dawley rats; details: 100 μM in gelatin sponge with bFGF and heparin, subcutaneous, 7 days
Experimental: Sterile gelatin sponges (1 mm^3; Curaspon Dental, Clinimed Holding, Zwanenburg, The Netherlands) were subcutaneously implanted in the dorsal region of the neck in Sprague-Dawley rats after the induction of intraperitoneal anesthesia. The animals were split into two groups: group A, the sponges were moistened with 200 μl of saline solution which contained 25 μg/ml of heparin and 10 μg/ml of basic FGF (bFGF); group B, the sponges were moistened in the same solution as in group A, but which solution further contained 2,5-dihydroxybenzoate (100 μM). After 7 days, the sponges and the surrounding subcutaneous fat were removed and histologically analyzed.

rat glioma C6 cells = test: Rat glioma C6 cell proliferation (crystal violet staining); type: cell-based; details: 48 h
Experimental: The cell line used was rat glioma C6 cells. The cells were cultured as previously described (Cuevas P et al. Neurol Res, 2005). The cells were cultured as adherent cells in Dulbecco's modified Eagle's medium, supplemented with 7.5% (v/v) of fetal bovine serum, 10 μg/ml of streptomycin and 10 units/ml of penicillin. The tumor cells were seeded in 24-well plates at a density of 10,000 cells/well, and were incubated at 37° C. in a humidified chamber with 5% CO2. Once adhered, the cells were treated or not (controls) with 2,5-dihydroxybenzoate at 100, 200, 500 or 1000 μM and they were allowed to proliferate for 48 h. After this time the glioma cell proliferation was evaluated by means of staining the fixed cells with crystal violet. The number of cells is proportional to the amount of retained dye, which was spectrophotometrically determined by measuring the absorbance at 595 nm once the dye was extracted from the cells.
(§1) The cell line used was the C6 cell line and the experiment was carried out as described in Example 2. Once adhered, the cells were treated or not (controls) with increasing concentrations of 2,5-DHC (10, 25, 50 and 100 μM) and they were allowed to proliferate for 48 h. After this time the glioma cell proliferation was evaluated by means of staining the fixed cells with crystal violet. The number of cells is proportional to the amount of retained dye, which was determined spectrophotometrically by measuring absorbance at 595 nm once the dye was extracted from the cells.
as §1, with “examples 2 and 3.” for “Example 2.”, “(5A-2HBS) (500 μM) or (2A-5HBS) (500” for “increasing concentrations of 2,5-DHC (10, 25, 50 and 100”, “measuring the” for “measuring”

[1] = target: T1, fibroblast growth factor-1 (FGF-1) (Homo sapiens, UniProt P05230); test: Mitogenesis induced by FGF-1 in quiescent Balb/c 3T3 fibroblast cultures; type: cell-based; details: quiescent Balb/c 3T3 fibroblasts
Experimental: The evaluated compounds were used in the form of potassium salt, except in the first case which used calcium salt. The experiments were carried out as described in Fernandez-Tornero C et al. J Biol Chem, 2003.

[2] = target: T1, fibroblast growth factor-1 (FGF-1); test: Crystal diffraction of complexes with FGF-1; details: co-crystal, electron density contoured at 1σ; acetoxyl groups conserved on binding
Experimental: Based on the crystal diffraction of the FGF-1:2-acetoxy-5-hydroxybenzene sulfonic acid, FGF-1:5-acetoxy-2-hydroxybenzene sulfonic acid and FGF-1:2,5-diacetoxybenzene sulfonic acid complexes, the structures of the complexes were calculated and represented. FIGS. 13, 14 and 15, which show the surface of the dyed protein according to its electrostatic potential (light grey, negative charge; dark grey, positive charge; white, regions with no charge), show the manner in which 2-acetoxy-5-hydroxybenzene sulfonic acid, 5-acetoxy-2-hydroxybenzene sulfonic acid and 2,5-diacetoxybenzene sulfonic acid interact, respectively, with FGF-1.

[3] = system: subcutaneous gliomas (rat C6 glioma cells); test: Progression of established subcutaneous C6 gliomas in rats; type: in vivo; details: i.p. 100 mg/kg/day for 10 days; for average size (volume) of subcutaneous gliomas: treatment started 5 days after implantation
Experimental: Rat C6 glioma cells were cultured as previously described (Cuevas P et al. Neurol Res, 2005). The C6 cells cultured to confluence in 75 cm^2 flasks were removed and implanted under the abdominal skin in anesthetized rats. The existence of a tumor in the implantation area was observed five days after the implantation of the tumor cells. Only the rats in which the existence of a tumor was observed were randomly assigned to be treated with daily intraperitoneal injections of 2,5-dihydroxybenzene sulfonate (DHBS; 100 mg/kg/day), 2,5-diacetoxybenzene sulfonate (DABS; 100 mg/kg/day) or the carrier (0.9% NaCl). After 10 days of treatment, the subcutaneous gliomas were removed and their volume was calculated according to the formula V=4/3π·(L/2)·(A/2)^2 (in mm^3) where L is the larger diameter and A is the smaller diameter, both expressed in mm.

[4] = system: human prostate cancer PC-3 cells; test: Subcutaneous PC-3 prostate tumor implantation model in athymic mice; type: in vivo, athymic mice (Nu/Nu); details: 100 mg/kg daily i.p. for 15 days
Experimental: 5×10^6 human prostate cancer PC-3 cells were subcutaneously injected in male athymic mice (Nu/Nu) of 6-8 weeks of age and weighing 20-26 g. Ten days after the implantation of the tumor cells, the mice were randomly split into two groups: one of them received a daily injection of potassium 2,5-diacetoxybenzene sulfonate (DABS) by intraperitoneal route at a dose of 100 mg/kg dissolved in saline (0.9% NaCl) whereas the other group received a daily injection of carrier (saline). The treatments were administered for 15 days. The volumes of the tumors induced by the implantation of PC-3 cells were measured through the skin on alternating days using a Vernier caliper. The volume was calculated using the formula V=(D×2d)/2, where D is the larger diameter in mm, d is the smaller diameter in mm and V is the volume in mm3. At the end of treatment, the mice were sacrificed and the tumors were weighed.

[5] = system: tumor cells of subcutaneous gliomas; test: Apoptosis in sections of established subcutaneous gliomas in rats; type: in vivo; details: 100 mg/kg/day i.p. for 10 days
Excerpt: Tumor cells elude the programmed cell death process or apoptosis that normal cells experience. Apoptosis induction in tumor cells is one way to confront the development of a tumor. To evaluate the effect of potassium 2,5-dihydroxybenzene sulfonate […] on tumor cell apoptosis, 6 μm thick sections of the subcutaneous gliomas described in example 4 were made. The sections were stained with hematoxylin and eosin and observed at a magnification of 313 times using immersion oil. In these conditions, cell apoptosis is shown by the existence of apoptotic bodies appearing as strongly chromogenic granules in the cell nucleus which is frequently fragmented.

T1 sequence (P05230 whole entry, species assumed): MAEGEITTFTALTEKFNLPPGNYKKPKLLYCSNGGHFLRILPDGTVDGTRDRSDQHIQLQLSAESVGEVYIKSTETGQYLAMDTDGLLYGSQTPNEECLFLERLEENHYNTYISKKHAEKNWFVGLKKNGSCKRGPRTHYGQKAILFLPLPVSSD

Row | SMILES | mitogenesis induced by FGF-1 [1] | binding site on FGF-1 in the crystal complex [2] | rat glioma cell proliferation (rat glioma C6 cells; 500 μM) | average size (volume) of subcutaneous gliomas [3] | other results
1 | O=C(O)c1cc(O)ccc1O [2,5-dihydroxybenzoate, 2,5-dihydroxybenzoic acid] |  |  |  |  | bFGF-induced fibrosis (fibroblasts in septa of connective tissue of adipose tissue) (bFGF-induced fibrosis): reduces bFGF-induced fibrosis; rat glioma C6 cell proliferation, significance of the effect (rat glioma C6 cells; 500 μM): statistically significant; rat glioma C6 cell proliferation, significance of the effect (rat glioma C6 cells; 1000 μM): statistically significant; rat glioma C6 cell proliferation (absorbance at 595 nm) (rat glioma C6 cells; 100, 200, 500 or 1000 μM): inhibited rat glioma C6 cell proliferation in a concentration-dependent manner
2 | CC(=O)Oc1ccc(O)c(S(=O)(=O)[O-])c1.[K+] [5A-2HBS, potassium 5-acetoxy-2-hydroxybenzene sulfonate] | inhibition of mitogenesis | occupy a site that is very close to the one that has been described occupied by 2,5-dihydroxybenzene sulfonic acid | caused the inhibition of rat glioma cell proliferation |  | 
3 | O=S(=O)([O-])c1cc(O)ccc1O.[K+] [DHBS, potassium 2,5-dihydroxybenzene sulfonate, reference compound] | inhibition of the mitogenesis |  |  | less than that of the rats treated with carrier | 
4 | CC(=O)Oc1ccc(O)cc1S(=O)(=O)[O-].[K+] [2A-5HBS, potassium 2-acetoxy-5-hydroxybenzene sulfonate] | inhibition of mitogenesis | occupy a site that is very close to the one that has been described occupied by 2,5-dihydroxybenzene sulfonic acid | caused the inhibition of rat glioma cell proliferation |  | 
5 | CC(=O)Oc1ccc(OC(C)=O)c(S(=O)(=O)[O-])c1.[K+] [DABS, potassium 2,5-diacetoxybenzene sulfonate] | inhibition of mitogenesis | occupy a site that is very close to the one that has been described occupied by 2,5-dihydroxybenzene sulfonic acid |  | even less | weight of the extracted tumor when treatment ended [4]: significant reduction; tumor growth (tumor volume measured through the skin) ([4]; started 10 days after implantation): significantly reduced; tumor cells in apoptosis in glioma sections (hematoxylin and eosin) [5]: a large number of tumor cells in apoptosis; probability of being tumor-free (χ2 test) versus group treated with DHBS [3]: greater probability of being tumor-free
